# Data as given in PMC8137473, “Preclinical trial of a MAP4K4 inhibitor to reduce infarct size in the pig: does cardioprotection in human stem cell-derived myocytes predict success in large mammals?” (Basic Research in Cardiology, 2021).
# Experiments:
# [1] = tested on: porcine model of MI; assay: efficacy study: hemodynamics and LV function; type: in vivo, swine; conditions: for 2-D ejection fraction / LV end-diastolic lumen surface / LV end-diastolic wall thickness (infarct region) / LV end-systolic lumen surface / LV end-systolic wall thickness (infarct region) / Systolic Wall thickening (infarct region): echocardiography; for DAP / HR / MAP / SAP: fluid-filled catheter
# Protocol: (§1) Next, an efficacy study was performed, in adherence to published guidelines for rigor and reproducibility, to evaluate the postulated benefit of DMX-10001 in a large-mammal model of MI. Briefly, 36 closed-chest swine (41 ± 2 kg) were subjected to regional ischemia by occluding the left anterior descending coronary artery (LAD) distal to the first diagonal branch for 60 min, followed by 24 h of reperfusion. Treatment with DMX-10001 (60 mg/kg/h for 0.5 h, followed by 17 mg/kg/h for 23.5 h) versus the vehicle was initiated 20 min prior to reperfusion and continued for 1 day. After 2 h of reperfusion, animals were allowed to recover from anesthesia. At 24 h of reperfusion, the infarct area (IA), area of no-reflow (NR), and area at ischemic risk (AAR) were determined. Transthoracic short-axis B-mode echocardiograms and measurements of LV pressure and its first derivative (LVdP/dt) were obtained at baseline and at 24 h of reperfusion. LV pressure–volume measurements were obtained at 24 h of reperfusion. Heart-type fatty acid binding protein (hFABP) release was measured, as a biomarker that correlates with IS and NR in swine at least as well as cardiac troponin I [30].
# A transthoracic short-axis B-mode echocardiogram (ZS3, Zonare Medical Systems, Mountain View, CA) was performed to determine LV contractile performance. LV pressure and its first derivative (LVdP/dt) were determined using a micro-manometer-tipped catheter (SPR-350S, Millar Inc., Houston, TX), before infarct induction and again before killing. Terminal LV pressure–volume measurements were also performed, using a 7F conductance catheter (CD Leycom, Hengelo, The Netherlands) advanced into the LV [32]. After calibration of the system, pressure–volume loops were recorded during a breath hold.
# Hemodynamic and LV global function were recorded and digitized online using a three-channel data acquisition program (ATCODAS, Dataq Instruments Inc., Akron OH) and stored on a computer for off-line analysis with a program written in MATLAB (Mathworks Inc., Natick, MA). A minimum of 10 s was selected for analysis of the digitized hemodynamic signals. Pressure–volume-related data were recorded and stored on a computer for off-line analysis (CD Leycom, Hengelo, The Netherlands). Statistical significance (P < 0.05, two tailed) for changes was determined by two-way ANOVA (time point in protocol x treatment) for repeated measures, followed by post hoc testing with the Bonferonni multiple comparison test.
# [2] = tested on: heart-type fatty acid binding protein (hFABP); assay: efficacy study: plasma hFABP release (ELISA); type: in vivo, swine
# Protocol: as §1, with “Transthoracic short-axis B-mode echocardiograms and measurements of LV pressure and its first derivative (LVdP/dt) were obtained at baseline and at 24 h of reperfusion. LV pressure–volume measurements were obtained at 24 h of reperfusion.” left out, “[30]. […] Levels of DMX-10001 and DMX-5804 were determined by liquid chromatography–mass spectrometry (Pharmidex, London, UK). Porcine hFABP was analyzed as described: plasma samples were thawed on ice, diluted 10 × using the standard diluent provided with the kit, and analyzed by enzyme-linked immunosorbent assays according to the manufacturer’s instructions (Life Diagnostics, West Chester, PA). […]” for “[30].”
# [3] = Millar catheter, Day 1 Baseline
# [4] = Millar catheter, Day 2 End of Reperfusion
# [5] = conductance catheter, End of Reperfusion
# [6] = Coronary artery occlusion 15 min
# [7] = Coronary artery occlusion 40 min
# [8] = Coronary artery occlusion 60 min
compound,measurement,setting,value
COCCOc1ccc(-c2cn(-c3ccccc3)c3ncn(COP(=O)(O)O)c(=O)c23)cc1 [DMX-10001],LV dP/dtmax,[1]; [3],1830 mmHg/s
same,LV dP/dtmin,[1]; [3],-2080 mmHg/s
same,LV dPdtP40,[1]; [3],1640 mmHg/s
same,LV end-diastolic pressure,[1]; [3],8 mmHg
same,LV peak systolic pressure,[1]; [3],102 mmHg
same,tau,[1]; [3],34 ms
same,LV dP/dtmax,[1]; [4],920 mmHg/s
same,LV dP/dtmin,[1]; [4],-1240 mmHg/s
same,LV dPdtP40,[1]; [4],800 mmHg/s
same,LV end-diastolic pressure,[1]; [4],13 mmHg
same,LV peak systolic pressure,[1]; [4],78 mmHg
same,tau,[1]; [4],44 ms
same,3-D ejection fraction,[1]; [5],34%
same,Cardiac output,[1]; [5],4.7 L/min
same,Heart rate,[1]; [5],109 beats/min
same,LV end-diastolic pressure,[1]; [5],10 mmHg
same,LV end-diastolic volume,[1]; [5],138 mL
same,LV end-systolic volume,[1]; [5],96 mL
same,LV peak-systolic pressure,[1]; [5],73 mmHg
same,Stroke volume,[1]; [5],45 mL/beat
same,tau,[1]; [5],28 ms
same,2-D ejection fraction,[1]; Day 1 Baseline,44%
same,LV end-diastolic lumen surface,[1]; Day 1 Baseline,1843 mm^2
same,LV end-diastolic wall thickness (infarct region),[1]; Day 1 Baseline,7.4 mm
same,LV end-systolic lumen surface,[1]; Day 1 Baseline,1034 mm^2
same,LV end-systolic wall thickness (infarct region),[1]; Day 1 Baseline,10.7 mm
same,Systolic Wall thickening (infarct region),[1]; Day 1 Baseline,49%
same,2-D ejection fraction,[1]; Day 2 End of Reperfusion,25%
same,LV end-diastolic lumen surface,[1]; Day 2 End of Reperfusion,1916 mm^2
same,LV end-diastolic wall thickness (infarct region),[1]; Day 2 End of Reperfusion,8.5 mm
same,LV end-systolic lumen surface,[1]; Day 2 End of Reperfusion,1435 mm^2
same,LV end-systolic wall thickness (infarct region),[1]; Day 2 End of Reperfusion,8.7 mm
same,Systolic Wall thickening (infarct region),[1]; Day 2 End of Reperfusion,3%
same,effect on hemodynamic and LV functional end-points after ischemia–reperfusion,[1]; efficacy study,neither worsened nor enhanced
same,DAP,[1]; Baseline,75 ± 15 mmHg
same,HR,[1]; Baseline,124 ± 33 bpm
same,MAP,[1]; Baseline,89 ± 16 mmHg
same,SAP,[1]; Baseline,107 ± 14 mmHg
same,DAP,[1]; [6],76 ± 28 mmHg
same,HR,[1]; [6],89 ± 40 bpm
same,MAP,[1]; [6],91 ± 30 mmHg
same,SAP,[1]; [6],110 ± 34 mmHg
same,DAP,[1]; [7],58 ± 16 mmHg
same,HR,[1]; [7],78 ± 31 bpm
same,MAP,[1]; [7],71 ± 17 mmHg
same,SAP,[1]; [7],88 ± 18 mmHg
same,DAP,[1]; [8],52 ± 10 mmHg
same,HR,[1]; [8],71 ± 21 bpm
same,MAP,[1]; [8],65 ± 11 mmHg
same,SAP,[1]; [8],82 ± 13 mmHg
same,DAP,[1]; Reperfusion (day 1) 10 min,61 ± 13 mmHg
same,HR,[1]; Reperfusion (day 1) 10 min,99 ± 22 bpm
same,MAP,[1]; Reperfusion (day 1) 10 min,74 ± 13 mmHg
same,SAP,[1]; Reperfusion (day 1) 10 min,91 ± 13 mmHg
same,DAP,[1]; Reperfusion (day 1) 30 min,63 ± 11 mmHg
same,HR,[1]; Reperfusion (day 1) 30 min,120 ± 31 bpm
same,MAP,[1]; Reperfusion (day 1) 30 min,73 ± 11 mmHg
same,SAP,[1]; Reperfusion (day 1) 30 min,88 ± 11 mmHg
same,DAP,[1]; Reperfusion (day 1) 120 min,62 ± 9 mmHg
same,HR,[1]; Reperfusion (day 1) 120 min,94 ± 26 bpm
same,MAP,[1]; Reperfusion (day 1) 120 min,73 ± 9 mmHg
same,SAP,[1]; Reperfusion (day 1) 120 min,87 ± 10 mmHg
same,DAP,[1]; Reperfusion (day 2) 22h 40 min,56 ± 13 mmHg
same,HR,[1]; Reperfusion (day 2) 22h 40 min,112 ± 24 bpm
same,MAP,[1]; Reperfusion (day 2) 22h 40 min,67 ± 13 mmHg
same,SAP,[1]; Reperfusion (day 2) 22h 40 min,80 ± 13 mmHg
same,DAP,[1]; Reperfusion (day 2) 23h 40 min,62 ± 17 mmHg
same,HR,[1]; Reperfusion (day 2) 23h 40 min,103 ± 14 bpm
same,MAP,[1]; Reperfusion (day 2) 23h 40 min,75 ± 18 mmHg
same,SAP,[1]; Reperfusion (day 2) 23h 40 min,91 ± 20 mmHg
same,plasma level of hFABP,[2]; 60 min of reperfusion,120 ± 19 ng/mL
same,plasma level of hFABP,[2]; baseline,8 ± 2 ng/mL
